The numbers were not newly measured in patent publication US12201720B2, “Pharmaceutical composition comprising GHB gastro-retentive raft forming systems having trigger pulse drug release” (Tris Pharma, Inc., priority 2017, dated 2025), which cites them from elsewhere.

The conditions of the data set: descriptive statement.

Like-named read-outs stand apart in the source and are kept apart here.

Regarding `O=C(O)CCCO` [Sodium oxybate], the “Solubility in water / aqueous solutions” value was “very soluble”. Also, for the setting “listed as Sodium GHB”, the “Solubility in water / aqueous solutions” value is given as “highly water-soluble”.
